Measurements published in patent publication EP0845034B1, “PEPTIDE HAVING PRONOCICEPTIVE PROPERTIES” (Euroscreen S.A., priority 1995, dated 1997).
Structures can show the parent of a compound that is named as a salt.

Tests used:
mice [1] = experiment: antagonism of nociceptin-induced stimulation of horizontal locomotor activity; format: in vivo
mice [2] = details: mouse, in vivo

C=CCN1CC[C@]23c4c5ccc(O)c4O[C@H]2C(=O)CC[C@@]3(O)[C@H]1C5 [Naloxone, Naloxone hydrochloride]
effect on motor-stimulant effect of nociceptin (mice [1]; 0.0-4.5 mg/kg s.c., 10 minutes before i.c.v. 100 ng nociceptin, first 10 minutes of testing): did not suppress

O=C(CCCN1CCC(O)(c2ccc(Cl)cc2)CC1)c1ccc(F)cc1 [haloperidol]
effect on nociceptin-induced stimulation of locomotor activity (mice [1]; increasing doses of D2 dopamine receptor antagonist pretreatment): antagonized

CN1CC[C@]23c4c5ccc(O)c4O[C@H]2[C@@H](O)C=C[C@H]3[C@H]1C5 [morphin]
number of explored holes (mice [2]): 24 ± 2
